Data: US20220313780A1, “METHODS AND COMPOSITIONS FOR TREATING INFLAMMATORY CONDITIONS” (THE SCRIPPS RESEARCH INSTITUTE, priority 2019, published 2022)

System: endothelial cells (EA.hy926)
Assay: Transendothelial Electric Resistance (TER) assay of thrombin-induced endothelial barrier disruption
Type: cell-based
Conditions: peptide at 5 to 50 nM
Text: The bottom curve in each panel of the figure is labeled as IIa for thrombin alone and represents the observed effects for thrombin (IIa) in the absence of peptide. In each panel, IIa was always present for each peptide added. The number in each panel indicates the concentration of each peptide for the respective curves. The peptide concentration of 0 is represented by the bottom curve labeled “IIa”. (A) the dose response inhibition over time of TER, expressed by Normalized Cell Index (NCI) by the PAR1 derived peptide P1(47-66) or TR47 using concentrations between 5 and 50 nM. (B) the dose response inhibition over time of NCI by the PAR3-derived peptide P3(42-65) or P3R using a 5 to 50 nM concentration range. (C) The NCI dose response inhibition over time by the short sequence PAR1-derived peptide P1(47-55) using a range of concentrations between 50 nM and 100 μM peptide. (D) The NCI dose response inhibition over time by the short sequence PAR3-derived peptide P3(42-54) using a range of concentrations between 1 μM and 200 μM peptide. (E) The NCI dose response inhibition over time by the hybrid peptide G10 in which the P1(47-55) peptide described in panel C was linked to a PAR3 peptide P3(51-65) by using 10 Gly residues. In this case the range of concentrations to study the dose response inhibition was between 3 and 50 nM peptide. An estimate for the percentage of activity for each peptide dilution in presence of thrombin can be quantified by obtaining the Area under the Curve (AUC) for each peptide dilution in comparison to the value for the AUC for thrombin alone in the absence of any peptide. These values were used to calculate the potency of each PAR peptide.
Transendothelial Electric Resistance (TER)-based assays were used to monitor the disruption of endothelial barrier integrity caused by thrombin. The anti-inflammatory, vasculoprotective actions of different PAR peptides for protecting against thrombin-induced vascular leakage on cultured endothelial cells (EA.hy926) were followed in real time using an iCELLigence machine (ACEA Biosciences Inc, San Diego, Calif.). EA.hy926 cells at a density of 10,000/well were pipetted into the wells of gold-plated microelectrode sensor (L8, Acea Biosciences). Subsequently, the increase of electrical resistance was monitored as cells grew and spread out on the microelectrodes to obtain confluence (reaching a plateau) over the TER plates connected to the recording instrument that detected in real time the changes in TER for each well. The effects of different PAR-derived peptides at the indicated concentrations were tested for dose-response inhibition of thrombin's effects when each of the peptide dilutions was added 30 min prior to the addition of thrombin (0.25 nM final in all wells). The percentage of inhibition was proportional to the increase in TER signal over time. Cell index values, reflecting TER signals, were normalized prior to addition of thrombin following manufacturer's directions.

With “GAPPNSFEEFPFSALEGWTGATIT [P3R, PAR3-derived 24-mer peptide]” the “effect on thrombin-induced disruption of endothelial barrier” value was “had no significant effect”.
